Assays:
[1] = biological target: T1, panel of ninety-seven kinases (Homo sapiens, UniProt P08581); test: DiscoverX KinomeScreen kinase selectivity competition binding assay; settings: MET; read-out: % Ctrl @ 3 μM
T1 construct: purchased DiscoverX; host or cells: T7 phage in E. coli (BL21-derived) for most kinases; HEK-293 for the rest
Summary of the method: (§1)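 Site-directed competition binding: kinase (T7 phage-tagged or HEK-293-expressed, DNA-tagged) captured on immobilized biotinylated ligand beads, with compound at 3000 nM. Bound kinase eluted and quantified by qPCR. Reported as % Ctrl, with DMSO as 100% and control compound as 0%.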

[2] = biological target: T2, panel of ninety-seven kinases (Homo sapiens, UniProt P16234); test: as above; settings: PDGFRA; read-out: % Ctrl @ 3 μM
T2 construct: purchased DiscoverX; host or cells: T7 phage in E. coli (BL21-derived) for most kinases; HEK-293 for the rest
Summary of the method: as §1

[3] = biological target: T3, panel of ninety-seven kinases (Homo sapiens, UniProt P17612); test: as above; settings: PRKACA; read-out: % Ctrl @ 3 μM
T3 construct: purchased DiscoverX; host or cells: T7 phage in E. coli (BL21-derived) for most kinases; HEK-293 for the rest
Summary of the method: as §1

[4] = biological target: T4, panel of ninety-seven kinases (Homo sapiens, UniProt P24941); test: as above; settings: CDK2; read-out: % Ctrl @ 3 μM
T4 construct: purchased DiscoverX; host or cells: T7 phage in E. coli (BL21-derived) for most kinases; HEK-293 for the rest
Summary of the method: as §1

[5] = biological target: T5, panel of ninety-seven kinases (Homo sapiens, UniProt P29317); test: as above; settings: EPHA2; read-out: % Ctrl @ 3 μM
T5 construct: purchased DiscoverX; host or cells: T7 phage in E. coli (BL21-derived) for most kinases; HEK-293 for the rest
Summary of the method: as §1

[6] = biological target: T6, panel of ninety-seven kinases (Homo sapiens, UniProt P31749); test: as above; settings: AKT1; read-out: % Ctrl @ 3 μM
T6 construct: purchased DiscoverX; host or cells: T7 phage in E. coli (BL21-derived) for most kinases; HEK-293 for the rest
Summary of the method: as §1

[7] = biological target: T7, panel of ninety-seven kinases (Homo sapiens, UniProt P36888); test: as above; settings: FLT3; read-out: % Ctrl @ 3 μM
T7 construct: purchased DiscoverX; host or cells: T7 phage in E. coli (BL21-derived) for most kinases; HEK-293 for the rest
Summary of the method: as §1

[8] = biological target: T8, panel of ninety-seven kinases (Homo sapiens, UniProt P45983); test: as above; settings: MAPK8; read-out: % Ctrl @ 3 μM
T8 construct: purchased DiscoverX; host or cells: T7 phage in E. coli (BL21-derived) for most kinases; HEK-293 for the rest
Summary of the method: as §1

[9] = biological target: T9, panel of ninety-seven kinases (Homo sapiens, UniProt P52333); test: as above; settings: JAK3; read-out: % Ctrl @ 3 μM
T9 construct: purchased DiscoverX; host or cells: T7 phage in E. coli (BL21-derived) for most kinases; HEK-293 for the rest
Summary of the method: as §1

[10] = biological target: T10, panel of ninety-seven kinases (Homo sapiens, UniProt P53779); test: as above; settings: MAPK10; read-out: % Ctrl @ 3 μM
T10 construct: purchased DiscoverX; host or cells: T7 phage in E. coli (BL21-derived) for most kinases; HEK-293 for the rest
Summary of the method: as §1

[11] = biological target: T11, panel of ninety-seven kinases (Homo sapiens, UniProt Q9BXA7); test: as above; settings: TSSK1B; read-out: % Ctrl @ 3 μM
T11 construct: purchased DiscoverX; host or cells: T7 phage in E. coli (BL21-derived) for most kinases; HEK-293 for the rest
Summary of the method: as §1

[12] = biological target: T12, panel of ninety-seven kinases (Homo sapiens, UniProt Q9Y463); test: as above; settings: DYRK1B; read-out: % Ctrl @ 3 μM
T12 construct: purchased DiscoverX; host or cells: T7 phage in E. coli (BL21-derived) for most kinases; HEK-293 for the rest
Summary of the method: as §1

[13] = biological target: T13, panel of ninety-seven kinases (Homo sapiens, UniProt Q9Y6R4); test: as above; settings: MAP3K4; read-out: % Ctrl @ 3 μM
T13 construct: purchased DiscoverX; host or cells: T7 phage in E. coli (BL21-derived) for most kinases; HEK-293 for the rest
Summary of the method: as §1

[14] = system: panel of ninety-seven kinases; test: as above
Summary of the method: as §1

PLK4 catalytic domain = biological target: T14, PLK4 catalytic domain (Homo sapiens, UniProt O00444); test: DiscoverX KinomeScreen competition binding assay, PLK4; settings: read-out: % Ctrl @ 3 μM
T14 construct: purchased DiscoverX; host or cells: T7 phage in E. coli (BL21-derived) or HEK-293
Protocol: Atropisomer A-2 has been tested for off-target activity against a panel of ninety-seven kinases distributed across the kinome at a concentration of 3 μM using the DiscoverX KinomeScreen assay. The DiscoverX KinomeScreen assay is a site-directed competition binding assay which measures the binding affinity of a compound to a kinase, by use of a solid supported control compound which can bind or capture the kinases in solution. In the absence of a kinase-inhibitor test compound, all of the kinase will bind to the solid support. If a kinase-inhibitor test compound is added to the assay mix, the amount of kinase binding to the solid support will be reduced, the extent of reduction being dependent on the potency of the test compound as a kinase inhibitor. […] For most assays, kinase-tagged T7 phage strains were grown in parallel in 24-well blocks in an E. coli host derived from the BL21 strain. […] The kinase concentration in the eluates was measured by qPCR. […] The strength of binding of the test molecule to the kinase can be expressed as the percent control (% Ctrl) The compound(s) were screened at 3000 nM concentration, and results for primary screen binding interactions are reported as ‘% Ctrl’, where lower numbers indicate stronger hits in the matrix on the following page(s). […]

T6 sequence (P31749 whole entry): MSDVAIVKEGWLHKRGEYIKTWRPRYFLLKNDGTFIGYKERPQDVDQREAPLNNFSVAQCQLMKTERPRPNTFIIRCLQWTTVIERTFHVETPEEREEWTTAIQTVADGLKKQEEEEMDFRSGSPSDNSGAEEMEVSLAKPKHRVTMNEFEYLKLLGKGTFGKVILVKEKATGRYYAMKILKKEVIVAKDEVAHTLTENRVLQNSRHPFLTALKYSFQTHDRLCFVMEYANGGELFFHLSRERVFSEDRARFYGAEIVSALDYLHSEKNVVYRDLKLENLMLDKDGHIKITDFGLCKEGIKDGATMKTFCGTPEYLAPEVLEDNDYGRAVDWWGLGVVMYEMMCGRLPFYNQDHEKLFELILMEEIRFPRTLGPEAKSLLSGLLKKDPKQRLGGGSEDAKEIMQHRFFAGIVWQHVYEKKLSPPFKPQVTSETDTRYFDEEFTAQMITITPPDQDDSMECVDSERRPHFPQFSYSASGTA
T8 sequence (P45983 whole entry): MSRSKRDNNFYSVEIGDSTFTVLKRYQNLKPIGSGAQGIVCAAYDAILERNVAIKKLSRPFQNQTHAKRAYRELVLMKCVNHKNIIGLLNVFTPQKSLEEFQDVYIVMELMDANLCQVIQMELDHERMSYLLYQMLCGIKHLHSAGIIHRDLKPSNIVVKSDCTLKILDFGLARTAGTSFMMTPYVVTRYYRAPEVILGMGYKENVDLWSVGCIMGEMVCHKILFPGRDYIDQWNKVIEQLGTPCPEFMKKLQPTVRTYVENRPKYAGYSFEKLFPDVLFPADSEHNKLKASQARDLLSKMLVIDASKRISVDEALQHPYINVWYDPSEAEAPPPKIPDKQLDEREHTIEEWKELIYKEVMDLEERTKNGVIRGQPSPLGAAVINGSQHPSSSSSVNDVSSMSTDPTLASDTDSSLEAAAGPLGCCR
T9 sequence (P52333 whole entry): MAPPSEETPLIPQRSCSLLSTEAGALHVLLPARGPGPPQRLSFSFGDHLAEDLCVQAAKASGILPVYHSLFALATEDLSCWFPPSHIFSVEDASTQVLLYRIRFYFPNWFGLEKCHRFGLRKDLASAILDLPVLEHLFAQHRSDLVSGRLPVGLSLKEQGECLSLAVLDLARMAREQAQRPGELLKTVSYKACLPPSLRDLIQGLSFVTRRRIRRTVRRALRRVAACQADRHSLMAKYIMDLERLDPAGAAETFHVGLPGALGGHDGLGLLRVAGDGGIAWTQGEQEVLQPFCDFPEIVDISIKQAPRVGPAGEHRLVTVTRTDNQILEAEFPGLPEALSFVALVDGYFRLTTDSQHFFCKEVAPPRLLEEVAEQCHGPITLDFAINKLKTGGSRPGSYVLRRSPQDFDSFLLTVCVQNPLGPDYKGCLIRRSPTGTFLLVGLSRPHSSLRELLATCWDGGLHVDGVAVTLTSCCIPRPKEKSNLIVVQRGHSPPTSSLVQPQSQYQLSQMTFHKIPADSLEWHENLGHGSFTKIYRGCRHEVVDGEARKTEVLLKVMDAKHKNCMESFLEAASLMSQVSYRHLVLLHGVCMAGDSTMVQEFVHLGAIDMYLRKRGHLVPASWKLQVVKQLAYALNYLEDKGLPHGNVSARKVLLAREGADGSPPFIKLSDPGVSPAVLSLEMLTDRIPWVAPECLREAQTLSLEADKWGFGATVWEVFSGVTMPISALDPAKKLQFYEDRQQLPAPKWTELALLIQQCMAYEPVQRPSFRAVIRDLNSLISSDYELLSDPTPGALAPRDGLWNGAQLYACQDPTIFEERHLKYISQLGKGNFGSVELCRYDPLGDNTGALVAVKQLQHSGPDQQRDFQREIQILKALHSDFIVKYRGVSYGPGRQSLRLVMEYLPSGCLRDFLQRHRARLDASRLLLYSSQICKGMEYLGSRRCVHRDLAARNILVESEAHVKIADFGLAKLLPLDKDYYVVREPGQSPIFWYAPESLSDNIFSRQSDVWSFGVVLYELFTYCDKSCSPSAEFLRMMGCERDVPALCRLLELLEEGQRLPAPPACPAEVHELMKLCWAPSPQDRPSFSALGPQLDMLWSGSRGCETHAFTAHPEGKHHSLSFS
T2 sequence (P16234 24-1089): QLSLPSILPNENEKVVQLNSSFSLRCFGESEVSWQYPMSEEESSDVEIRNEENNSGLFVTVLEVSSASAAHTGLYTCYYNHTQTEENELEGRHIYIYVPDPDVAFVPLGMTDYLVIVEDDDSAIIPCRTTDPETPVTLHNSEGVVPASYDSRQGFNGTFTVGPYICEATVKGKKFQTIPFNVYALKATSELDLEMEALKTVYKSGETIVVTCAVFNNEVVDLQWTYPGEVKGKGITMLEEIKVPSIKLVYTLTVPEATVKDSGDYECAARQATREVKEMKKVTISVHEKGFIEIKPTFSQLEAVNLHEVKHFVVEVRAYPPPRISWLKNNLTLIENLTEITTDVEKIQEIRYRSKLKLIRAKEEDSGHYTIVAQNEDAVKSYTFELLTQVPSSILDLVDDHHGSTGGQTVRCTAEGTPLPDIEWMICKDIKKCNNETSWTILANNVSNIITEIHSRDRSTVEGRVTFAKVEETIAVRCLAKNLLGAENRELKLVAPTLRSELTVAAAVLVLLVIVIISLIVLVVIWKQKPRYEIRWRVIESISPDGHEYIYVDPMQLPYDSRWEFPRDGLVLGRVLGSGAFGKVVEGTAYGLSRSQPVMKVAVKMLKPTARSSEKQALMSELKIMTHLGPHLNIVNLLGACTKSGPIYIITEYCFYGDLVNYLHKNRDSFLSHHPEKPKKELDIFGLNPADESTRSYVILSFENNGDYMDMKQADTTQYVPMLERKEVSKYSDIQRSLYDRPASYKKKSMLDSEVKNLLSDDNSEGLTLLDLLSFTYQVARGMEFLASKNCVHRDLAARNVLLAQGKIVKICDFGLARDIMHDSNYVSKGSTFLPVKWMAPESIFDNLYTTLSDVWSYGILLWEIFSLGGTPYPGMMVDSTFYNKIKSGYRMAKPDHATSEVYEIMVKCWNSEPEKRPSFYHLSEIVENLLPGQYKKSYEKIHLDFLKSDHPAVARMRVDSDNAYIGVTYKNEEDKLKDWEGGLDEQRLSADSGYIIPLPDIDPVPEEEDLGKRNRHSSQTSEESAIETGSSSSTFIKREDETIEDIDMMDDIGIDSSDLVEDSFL
T7 sequence (P36888 27-993): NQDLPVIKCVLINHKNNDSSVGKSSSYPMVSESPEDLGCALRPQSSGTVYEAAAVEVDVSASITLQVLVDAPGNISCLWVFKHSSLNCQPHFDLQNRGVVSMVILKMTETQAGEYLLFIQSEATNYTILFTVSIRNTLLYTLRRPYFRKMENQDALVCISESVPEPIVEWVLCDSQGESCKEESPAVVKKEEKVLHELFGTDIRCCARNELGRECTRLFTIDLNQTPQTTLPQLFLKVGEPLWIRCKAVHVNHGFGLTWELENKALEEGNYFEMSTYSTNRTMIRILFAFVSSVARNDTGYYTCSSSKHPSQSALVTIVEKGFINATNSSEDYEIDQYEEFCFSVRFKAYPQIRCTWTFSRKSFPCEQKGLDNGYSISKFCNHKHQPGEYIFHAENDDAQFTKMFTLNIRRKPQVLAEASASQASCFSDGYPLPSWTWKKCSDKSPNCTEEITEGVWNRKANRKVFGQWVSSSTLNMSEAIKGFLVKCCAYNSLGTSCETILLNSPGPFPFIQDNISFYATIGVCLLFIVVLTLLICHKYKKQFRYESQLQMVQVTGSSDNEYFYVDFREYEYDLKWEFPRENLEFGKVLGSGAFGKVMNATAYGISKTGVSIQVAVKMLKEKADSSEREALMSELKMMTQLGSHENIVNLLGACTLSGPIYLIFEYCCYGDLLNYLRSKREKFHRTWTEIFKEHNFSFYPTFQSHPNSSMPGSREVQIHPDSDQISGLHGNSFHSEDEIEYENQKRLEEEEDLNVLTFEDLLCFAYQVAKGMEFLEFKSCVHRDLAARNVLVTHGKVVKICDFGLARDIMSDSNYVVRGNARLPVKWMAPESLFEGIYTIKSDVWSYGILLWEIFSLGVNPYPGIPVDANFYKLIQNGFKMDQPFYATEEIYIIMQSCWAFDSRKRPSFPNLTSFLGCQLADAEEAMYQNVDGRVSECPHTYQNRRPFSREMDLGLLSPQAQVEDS
T14 sequence (O00444 12-265 limits assumed): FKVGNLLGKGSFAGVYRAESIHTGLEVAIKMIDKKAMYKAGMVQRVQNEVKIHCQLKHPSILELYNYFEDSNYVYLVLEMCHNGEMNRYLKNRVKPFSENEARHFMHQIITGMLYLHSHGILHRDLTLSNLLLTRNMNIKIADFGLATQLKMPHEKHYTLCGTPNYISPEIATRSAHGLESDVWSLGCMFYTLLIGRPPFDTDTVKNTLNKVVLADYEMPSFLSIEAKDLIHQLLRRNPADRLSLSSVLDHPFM
T12 sequence (Q9Y463 whole entry): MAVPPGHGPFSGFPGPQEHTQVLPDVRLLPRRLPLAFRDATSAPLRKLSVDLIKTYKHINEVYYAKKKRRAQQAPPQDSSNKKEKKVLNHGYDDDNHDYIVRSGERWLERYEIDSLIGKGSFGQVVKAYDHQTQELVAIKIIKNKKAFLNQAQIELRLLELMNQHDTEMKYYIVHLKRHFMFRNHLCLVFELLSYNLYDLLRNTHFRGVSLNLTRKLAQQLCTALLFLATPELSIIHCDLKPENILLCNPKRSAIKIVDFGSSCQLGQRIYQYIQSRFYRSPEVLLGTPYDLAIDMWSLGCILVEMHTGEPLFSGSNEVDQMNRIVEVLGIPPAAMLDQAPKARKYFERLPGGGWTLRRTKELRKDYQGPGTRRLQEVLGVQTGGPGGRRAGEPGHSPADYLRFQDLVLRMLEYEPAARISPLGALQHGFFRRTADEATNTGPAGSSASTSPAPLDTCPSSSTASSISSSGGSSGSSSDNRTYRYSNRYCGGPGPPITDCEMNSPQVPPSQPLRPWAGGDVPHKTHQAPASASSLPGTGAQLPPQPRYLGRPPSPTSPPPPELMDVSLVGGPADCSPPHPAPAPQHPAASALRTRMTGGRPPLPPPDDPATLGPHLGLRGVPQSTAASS

SMILES: CN(C)CCNC(=O)c1ccc(-c2ccc(-c3ccc(Cl)cc3)n2-c2ccccc2C(F)(F)F)cc1 (single isomer, unassigned) [Atropisomer A-2, 4-[5-(4-chlorophenyl)-1-[2-(trifluoromethyl)phenyl]pyrrol-2-yl]-N-[2-(dimethylamino)ethyl]benzamide]
- percent of control kinase binding to immobilized ligand at 3 µM [1]: 100%
- percent of control kinase binding to immobilized ligand at 3 µM [2]: 100%
- percent of control kinase binding to immobilized ligand at 3 µM [3]: 100%
- percent of control kinase binding to immobilized ligand at 3 µM [4]: 94%
- percent of control kinase binding to immobilized ligand at 3 µM [5]: 100%
- percent of control kinase binding to immobilized ligand at 3 µM [6]: 98%
- percent of control kinase binding to immobilized ligand at 3 µM [7]: 100%
- percent of control kinase binding to immobilized ligand at 3 µM [8]: 77%
- percent of control kinase binding to immobilized ligand at 3 µM [9]: 100%
- percent of control kinase binding to immobilized ligand at 3 µM [10]: 93%
- percent of control kinase binding to immobilized ligand at 3 µM [11]: 100%
- percent of control kinase binding to immobilized ligand at 3 µM [12]: 97%
- percent of control kinase binding to immobilized ligand at 3 µM [13]: 93%
- % Ctrl @ 3 μM ([14]; EGFR (variants not told apart)): 100%
- % Ctrl @ 3 μM ([14]; KIT (three lines, variants not told apart)): 100%
- binding activity against panel kinases (in words) ([14]; ninety-seven kinases, 3 μM): poor or non-existent binding activity
- remaining binding at 3 µM (PLK4 catalytic domain): 100%

From patent US20220348565A1, “PHARMACEUTICAL COMPOUNDS” (SENTINEL ONCOLOGY LIMITED, priority 2019, published 2022)
